Tests used:
[1] = system: F2-IsoPs esterified in the kidney; assay: Galactosamine treated rats (hepatorenal syndrome model), F2-IsoPs esterified in the kidney; type: in vivo, rat; settings: 1 g/L drinking water
Excerpt: Another antioxidant of the present invention is lipoic acid. […] Dihydrolipoic acid is a dithiol. As mentioned previously, thiols reduce the endoperoxide intermediates in the IsoP pathway in vivo to F2-IsoPs. Reducing the endoperoxides concomitantly therefore reduces the formation of endoperoxide rearrangement products, one of which is the IsoKs (FIG. 28). Therefore, mechanistically lipoic acid is an antioxidant to test in animal models of AD. It is also an antioxidant to test because it is available over the counter for human use.

aged SAMP mice = settings: mouse, in vivo; cited from earlier work
[2] = system: patients convalescing from myocardial infarction; settings: in vivo; cited from earlier work
[3] = target: mutant Na+ channel (F1760A) (Homo sapiens, UniProt Q14524, F1760A); assay: Whole-cell Na current recording, F1760A mutant Na+ channel; type: cell-based; settings: flecainide 10 μM, IsoK 10 μM
Experimental: A. Use-dependent flecainide block was examined using the protocol shown. A train of 500 depolarizing pulses with 10 msec duration at −20 mV were applied at a frequency of 5 Hz. Currents are plotted from every twentieth pulse. Upper panel represents the current in the presence of flecainide (1 μM). Lower panel represents INa in the presence of flecainide and IsoK (10 μM). B. Depolarization-dependent effects are summarized as a function of the pulse number. All current amplitudes are normalized to that of the first depolarization and every tenth pulse is plotted. […] For these experiments flecainide concentration was increased to 10 μM.
Where indicated, cells were co-transfected with an equimolar ratio of Na channel human β1 subunit. cDNAs were transiently transfected into HEK-293 cells using lipofectamine (GIBCO-BRL, Gaithersburg, Md.), and were cultured in MEM medium supplemented with 10% fetal bovine serum and 1% pen-strep in a 5% CO2 incubator at 37° C. for 1 to 4 days.
The effects of IsoK were tested using the same protocol as FIG. 39A. In this experiment, the concentration of flecainide was increased to 10 μM to exaggerate use-dependence.

[4] = target: human cardiac Na channel (hH1, or SCN5A) (Homo sapiens, UniProt Q14524); assay: Whole-cell Na current recording, wild-type hH1 expressed in HEK-293 cells; settings: for P500/P1 (use-dependence): 5 Hz, 500 pulses; for V1/2 voltage-dependence of inactivation (availability): HEK-293, t-BHP 1 mM, Iso-K 10 μM
HEK-293 cells = assay: Lipid peroxidation products in HEK 293 cells treated with t-BHP; type: cell-based; settings: exposure of HEK cells
Experimental: Synthesis and analysis of reactive products of lipid peroxidation: E2-isoketal was synthesized as previously described. The present inventors used mass spectrometry to analyze F2-isoprostanes formed following treatment of HEK 293 cells with t-BHP. For this assay, HEK-293 cells (1×10^6) were treated for 30 minutes at room temperature with buffer containing 100 μM t-BHP, or 100 μM t-BHP and 200 μM FeCl2. Total (free and esterified) F2-isoprostanes (F2-IsoPs) esterified in cellular lipids were then quantified by a highly accurate GC/NICI/MS assay as described previously.

[5] = target: native Na+ channels in HL-1 cells (Mus musculus, UniProt Q9JJV9); settings: for Na channel availability: HL-1, preincubation; for V1/2 availability of native Na+ channels: HL-1, t-BHP 2 mM, Iso-K 10 μM
ovalbumin (OVA) = ovalbumin (OVA) (Gallus gallus, UniProt P01012); assay: Protein cross-linking after incubation with ovalbumin; type: biochemical; settings: 10 molar equivalents, about 4 hours
Excerpt: The above findings explained why repeated attempts in the past to detect free IsoKs during oxidation of biological systems in vitro, e.g. microsomes, and in animal models of oxidant injury in vivo were unsuccessful because they are rapidly sequestered as protein adducts. Therefore, the present inventors undertook to determine the identity of IsoK lysyl adducts as a basis for development of methodology to detect IsoK and NeuroK adducts in biological tissues in their adducted form. […] Reversible Schiff base adducts were also identified. Schiff base adducts are formed rapidly and then decline over time, whereas lactam adducts accumulate slowly over time. Lysyl protein adducts of IsoKs and NeuroKs are analyzed by LC/MS/MS following enzymatic digestion of proteins to individual amino acids. Enzymatic digestion of proteins is necessary because the adducts degrade during acid hydrolysis. However, this analysis is further complicated by the proclivity of IsoKs and NKs to induce protein crosslinking, which is resistant to hydrolysis. […] This is a dramatic example of the differential effects of IsoKs/NKs and HNE on protein adduction and cross-linking.

P19 neuroglial cultures = assay: Cell death in P19 neuroglial cultures; type: cell-based; settings: read-out: LC50 cell death
Excerpt: (§1) Because inhibitors of proteasome function induce neuronal death, the present inventors examined the toxicity of IsoKs.

[6] = system: proteasome chymotrypsin-like activity; assay: Inhibition of chymotrypsin-like activity in RAW cell lysates; type: biochemical
Excerpt: When the mechanism of inhibition id analyzed, both competitive and non-competitive mechanism are found. Therefore, in addition to adducted proteins inhibiting the proteasome, IsoKs may cause inhibition by directly adducting to the proteasome itself, or to proteins that regulate proteasome activity.

bovine serum albumin = bovine serum albumin (Bos taurus, UniProt P02769); assay: Disappearance of free IsoK and HNE during incubation with bovine serum albumin (rate of adduction); type: biochemical
Experimental: Oxidation of AA in vitro produces both F2-IsoPs and IsoKs in nearly equivalent amounts. However, comparison of the formation of F2-IsoPs and IsoKs in vivo is more complex, because IsoKs rapidly adduct to lysyl residues on proteins. […] In striking contrast, approximately 50% of the HNE still remained in free form after 80 minutes.

proteasome = assay: Proteasome inhibition in P19 neuroglial cultures; type: cell-based
Excerpt: as §1

recombinant human tau = assay: PHF-tau formation, dot blot with Alz50; type: biochemical; settings: equimolar IsoK and tau, within 2 hrs
Experimental: Synthetic IsoK to equimolar amounts of recombinant human tau was added and the amount of PHF-tau formation by dot blot analysis was determined with the monoclonal antibody Alz50 (a gift from Dr. Peter Davis). Alz50 recognizes an epitope unique to PHF-tau. […] (FIG. 33).

[7] = alone, flecainide 1 μM, IsoK 10 μM

native Na+ channels in HL-1 cells, sequence (Q9JJV9 whole entry): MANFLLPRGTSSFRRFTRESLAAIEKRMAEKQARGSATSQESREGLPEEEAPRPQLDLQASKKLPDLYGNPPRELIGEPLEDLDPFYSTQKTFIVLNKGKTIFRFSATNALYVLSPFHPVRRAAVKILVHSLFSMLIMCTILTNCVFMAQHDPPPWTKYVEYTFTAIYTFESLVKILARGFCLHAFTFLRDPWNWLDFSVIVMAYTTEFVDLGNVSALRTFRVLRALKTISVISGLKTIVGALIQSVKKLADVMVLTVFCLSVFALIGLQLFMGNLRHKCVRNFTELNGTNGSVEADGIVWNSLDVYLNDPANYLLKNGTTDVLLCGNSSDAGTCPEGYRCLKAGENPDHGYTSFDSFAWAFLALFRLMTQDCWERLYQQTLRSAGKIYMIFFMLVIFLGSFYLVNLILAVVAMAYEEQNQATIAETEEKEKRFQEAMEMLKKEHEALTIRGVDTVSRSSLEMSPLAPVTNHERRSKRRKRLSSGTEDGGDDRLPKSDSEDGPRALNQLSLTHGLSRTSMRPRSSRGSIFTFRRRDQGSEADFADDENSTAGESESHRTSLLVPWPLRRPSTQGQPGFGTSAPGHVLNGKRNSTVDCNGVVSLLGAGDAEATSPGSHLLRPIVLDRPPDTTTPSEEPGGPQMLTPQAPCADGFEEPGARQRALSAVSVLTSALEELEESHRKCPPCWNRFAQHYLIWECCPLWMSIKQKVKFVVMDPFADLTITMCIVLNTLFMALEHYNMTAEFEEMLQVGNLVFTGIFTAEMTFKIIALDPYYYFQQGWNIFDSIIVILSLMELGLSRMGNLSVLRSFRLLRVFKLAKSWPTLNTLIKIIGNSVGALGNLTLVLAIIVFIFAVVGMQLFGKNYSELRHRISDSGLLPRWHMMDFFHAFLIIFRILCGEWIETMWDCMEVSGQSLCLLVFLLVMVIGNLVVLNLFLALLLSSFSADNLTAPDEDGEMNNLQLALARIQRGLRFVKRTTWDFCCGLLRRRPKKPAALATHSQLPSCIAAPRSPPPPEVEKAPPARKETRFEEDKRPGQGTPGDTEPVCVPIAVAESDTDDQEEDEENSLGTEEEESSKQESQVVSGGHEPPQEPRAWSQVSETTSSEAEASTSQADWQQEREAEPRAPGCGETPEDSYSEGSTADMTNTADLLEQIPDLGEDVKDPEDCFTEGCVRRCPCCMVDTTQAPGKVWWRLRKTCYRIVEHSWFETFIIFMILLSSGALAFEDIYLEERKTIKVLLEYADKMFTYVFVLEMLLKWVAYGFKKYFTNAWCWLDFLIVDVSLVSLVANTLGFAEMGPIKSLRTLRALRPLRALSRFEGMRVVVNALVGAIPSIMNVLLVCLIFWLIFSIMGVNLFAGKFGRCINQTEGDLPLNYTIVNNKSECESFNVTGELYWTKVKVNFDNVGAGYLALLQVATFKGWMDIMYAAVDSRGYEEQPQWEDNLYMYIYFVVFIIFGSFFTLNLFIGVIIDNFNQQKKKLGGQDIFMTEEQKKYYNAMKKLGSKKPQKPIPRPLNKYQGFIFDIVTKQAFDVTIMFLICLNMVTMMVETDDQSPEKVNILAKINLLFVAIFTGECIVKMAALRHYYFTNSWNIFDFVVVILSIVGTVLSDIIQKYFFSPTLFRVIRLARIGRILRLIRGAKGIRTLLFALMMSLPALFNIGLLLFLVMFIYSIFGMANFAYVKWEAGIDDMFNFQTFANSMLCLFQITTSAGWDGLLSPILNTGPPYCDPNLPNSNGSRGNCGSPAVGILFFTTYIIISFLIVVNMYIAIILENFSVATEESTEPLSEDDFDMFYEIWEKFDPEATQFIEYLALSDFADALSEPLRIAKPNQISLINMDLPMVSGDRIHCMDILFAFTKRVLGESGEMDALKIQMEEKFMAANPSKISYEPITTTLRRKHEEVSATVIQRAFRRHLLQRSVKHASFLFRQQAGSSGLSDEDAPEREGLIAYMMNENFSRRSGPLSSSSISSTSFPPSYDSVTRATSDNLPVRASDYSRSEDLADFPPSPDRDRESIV
human cardiac Na channel (hH1, or SCN5A), sequence (Q14524 whole entry): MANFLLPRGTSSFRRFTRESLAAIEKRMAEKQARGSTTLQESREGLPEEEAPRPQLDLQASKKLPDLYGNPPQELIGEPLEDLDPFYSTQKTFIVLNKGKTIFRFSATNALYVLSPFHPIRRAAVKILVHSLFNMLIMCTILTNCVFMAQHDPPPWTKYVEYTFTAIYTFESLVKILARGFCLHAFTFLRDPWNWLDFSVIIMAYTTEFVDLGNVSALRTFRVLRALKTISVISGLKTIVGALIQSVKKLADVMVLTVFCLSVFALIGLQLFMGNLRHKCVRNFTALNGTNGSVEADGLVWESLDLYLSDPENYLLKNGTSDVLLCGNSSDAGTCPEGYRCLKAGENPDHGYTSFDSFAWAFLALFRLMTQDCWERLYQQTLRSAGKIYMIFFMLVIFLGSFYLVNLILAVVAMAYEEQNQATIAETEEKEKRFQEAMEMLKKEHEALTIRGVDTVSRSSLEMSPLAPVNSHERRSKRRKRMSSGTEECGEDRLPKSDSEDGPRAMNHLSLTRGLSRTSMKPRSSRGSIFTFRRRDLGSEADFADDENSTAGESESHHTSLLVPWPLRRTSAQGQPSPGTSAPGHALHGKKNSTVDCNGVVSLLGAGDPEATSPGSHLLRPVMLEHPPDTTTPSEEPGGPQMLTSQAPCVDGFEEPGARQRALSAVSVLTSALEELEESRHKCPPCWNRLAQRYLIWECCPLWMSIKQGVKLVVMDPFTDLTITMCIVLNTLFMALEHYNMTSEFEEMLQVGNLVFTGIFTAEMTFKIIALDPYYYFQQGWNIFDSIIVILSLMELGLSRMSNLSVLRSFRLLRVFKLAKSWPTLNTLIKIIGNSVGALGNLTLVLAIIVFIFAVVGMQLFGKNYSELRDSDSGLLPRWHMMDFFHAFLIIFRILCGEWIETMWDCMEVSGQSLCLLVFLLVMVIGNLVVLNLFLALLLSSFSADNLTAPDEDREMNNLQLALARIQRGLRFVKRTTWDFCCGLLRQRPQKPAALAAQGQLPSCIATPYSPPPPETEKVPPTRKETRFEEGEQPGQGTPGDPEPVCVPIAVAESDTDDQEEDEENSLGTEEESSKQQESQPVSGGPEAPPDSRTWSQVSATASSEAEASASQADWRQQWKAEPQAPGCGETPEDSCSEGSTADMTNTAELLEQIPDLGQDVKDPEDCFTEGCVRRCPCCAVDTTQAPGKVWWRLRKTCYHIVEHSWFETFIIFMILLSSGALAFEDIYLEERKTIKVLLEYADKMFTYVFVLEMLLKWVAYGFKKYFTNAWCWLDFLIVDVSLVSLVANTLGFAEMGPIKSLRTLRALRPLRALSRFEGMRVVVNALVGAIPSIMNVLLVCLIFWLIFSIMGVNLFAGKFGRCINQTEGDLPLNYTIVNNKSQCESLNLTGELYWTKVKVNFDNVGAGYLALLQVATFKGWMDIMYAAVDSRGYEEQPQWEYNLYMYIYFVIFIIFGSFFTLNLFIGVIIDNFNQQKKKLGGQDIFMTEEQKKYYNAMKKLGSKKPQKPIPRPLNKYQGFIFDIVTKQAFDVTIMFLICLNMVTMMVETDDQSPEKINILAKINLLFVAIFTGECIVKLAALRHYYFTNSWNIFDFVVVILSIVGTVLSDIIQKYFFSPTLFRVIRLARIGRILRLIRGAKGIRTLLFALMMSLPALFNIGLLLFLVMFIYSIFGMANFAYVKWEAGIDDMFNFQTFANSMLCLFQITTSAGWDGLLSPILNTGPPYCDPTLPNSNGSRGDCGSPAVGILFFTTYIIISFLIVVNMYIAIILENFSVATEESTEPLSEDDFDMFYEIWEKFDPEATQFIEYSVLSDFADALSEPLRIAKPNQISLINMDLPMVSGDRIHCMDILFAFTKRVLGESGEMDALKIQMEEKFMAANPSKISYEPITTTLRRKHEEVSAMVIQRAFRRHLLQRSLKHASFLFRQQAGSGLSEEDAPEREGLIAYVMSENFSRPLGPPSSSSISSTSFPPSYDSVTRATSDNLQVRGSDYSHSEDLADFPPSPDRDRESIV
bovine serum albumin, sequence (P02769 25-607): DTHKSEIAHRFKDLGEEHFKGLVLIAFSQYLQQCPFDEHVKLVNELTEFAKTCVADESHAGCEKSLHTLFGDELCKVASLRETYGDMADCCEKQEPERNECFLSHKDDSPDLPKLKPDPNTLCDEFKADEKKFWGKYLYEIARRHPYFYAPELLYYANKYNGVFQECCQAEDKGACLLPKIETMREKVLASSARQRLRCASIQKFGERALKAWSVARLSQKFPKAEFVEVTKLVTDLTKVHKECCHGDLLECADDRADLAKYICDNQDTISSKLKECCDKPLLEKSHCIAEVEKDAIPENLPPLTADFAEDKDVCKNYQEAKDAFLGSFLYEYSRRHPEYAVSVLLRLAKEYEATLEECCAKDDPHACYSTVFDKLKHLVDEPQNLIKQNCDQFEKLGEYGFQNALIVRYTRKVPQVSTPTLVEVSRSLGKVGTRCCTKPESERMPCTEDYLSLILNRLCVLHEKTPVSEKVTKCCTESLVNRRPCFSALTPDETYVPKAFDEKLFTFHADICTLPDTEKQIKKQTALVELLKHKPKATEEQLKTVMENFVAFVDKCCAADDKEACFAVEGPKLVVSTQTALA
ovalbumin (OVA), sequence (P01012 whole entry, species assumed): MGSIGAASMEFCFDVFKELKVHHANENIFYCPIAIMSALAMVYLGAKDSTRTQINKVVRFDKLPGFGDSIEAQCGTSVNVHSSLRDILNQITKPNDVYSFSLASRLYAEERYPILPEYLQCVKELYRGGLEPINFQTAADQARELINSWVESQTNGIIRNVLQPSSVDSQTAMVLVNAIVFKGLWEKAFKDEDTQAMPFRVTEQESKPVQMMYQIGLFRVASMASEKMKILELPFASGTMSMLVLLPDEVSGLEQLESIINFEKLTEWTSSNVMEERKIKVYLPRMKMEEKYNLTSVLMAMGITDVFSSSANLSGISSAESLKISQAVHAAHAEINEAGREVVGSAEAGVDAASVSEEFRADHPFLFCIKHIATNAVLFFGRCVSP

For `O=C(O)CCCC[C@@H]1CCSS1` (racemic) [lipoic acid], the “increase in F2-IsoPs esterified in the kidney” value [1] is given as “completely suppressed to below control levels” and the cognitive impairment (aged SAMP mice) is given as “effective in improving cognitive impairment”.
In the case of `O=C(NCC1CCCCN1)c1cc(OCC(F)(F)F)ccc1OCC(F)(F)F` (centres unmarked) [flecainide], the mortality increase [2] is listed as “three-fold”, the “P500/P1 (use-dependent block)” value [3] is listed as 0.92±0.03 and the “A1 (amplitude of the fast component, recovery from inactivation)” value [4] is listed as 0.80 ± 0.04. For the same compound, the “A2 (amplitude of the slow component, recovery from inactivation)” value [4] was 0.20 ± 0.04, the “P500/P1 (use-dependence)” value [4, 7] was 0.87±0.04 and the “V1/2 voltage-dependence of inactivation (availability)” value ([4]; flecainide 1 μM) was −86.4±2.1 mV. For the same compound, the “P500/P1 (use-dependent block)” value ([4]; WT, flecainide 10 μM, IsoK 10 μM) was 0.38±0.05 and the “V1/2 voltage-dependence of inactivation” value ([4]; flecainide 1 μM in the presence of IsoK 10 μM) was −99.3±2.3 mV.
For `CC(C)(C)OO` [t-BHP, tert-butyl hydroperoxide], the “formation of lipid peroxidation products” value (HEK-293 cells) was “abundant quantities of F2-IsoPs and IsoK”, the “Na channel availability” value [5] was “reduced Na channel availability” and the “V1/2 availability of native Na+ channels” value [5] was −82.8±1.7 mV.
For E2-isoketal, the cross-linking of ovalbumin (ovalbumin (OVA)) was “extensive cross-linked high molecular weight oligimers”, the “Na channel availability” value [5] was “reduced Na channel availability” and the “V1/2 availability of native Na+ channels” value [5] was −82.0±1.7 mV. The CC50 (P19 neuroglial cultures) was 670 nM, the IC50 [6] was 2100 nM and the “A1 (amplitude of the fast component, recovery from inactivation)” value [4] was 0.79 ± 0.04. For the same compound, the “A2 (amplitude of the slow component, recovery from inactivation)” value [4] was 0.21 ± 0.04, the INa decay [4] was “speeded the rate Of INa decay” and the “V1/2 voltage-dependence of activation” value [4] was −41.6±1.5 mV. For the same compound, the “P500/P1 (use-dependence)” value [4, 7] was 0.89±0.02, the “P500/P1 (use-dependence)” value ([4]; in the presence of flecainide 1 μM) was 0.66±0.03 and the “V1/2 voltage-dependence of inactivation (availability)” value ([4]; flecainide 1 μM) was −96.4±1.1 mV. For the same compound, the “activation of sodium channels” value ([4]; over a range of membrane potentials) was “no effect on the activation”, the adduction to albumin (bovine serum albumin) was “essentially complete within a few minutes” and the IC50 (proteasome) was 330 nM. For the same compound, the “PHF-tau formation (Alz50)” value (recombinant human tau) was “strong Alz50 immunoreactivity”.
